Laboratory results as given in patent US20170260285A1, “METHODS FOR TREATING CANCER” (UNIVERSITY OF IOWA RESEARCH FOUNDATION, priority 2014, published 2017).
“Also recorded” adds a separate entry of the source. Where two headings read alike, the source gives them in different places.

Assays:
[1] = test system: SQ20B HNSCC cells; test: IL-6 secretion by ELISA in SQ20B cells; assay type: cell-based, human; settings: erlotinib 5 μM, 48 h vs DMSO, ELISA
Excerpt: (§1) Cal-27 and FaDu human head and neck squamous carcinoma (HNSCC) cells were obtained from the American Type Culture Collection (ATCC, Manassas, Va.). SQ20B HNSCC cells (16) were a gift from Dr. Anjali Gupta (Department of Radiation Oncology, The University of Iowa). All HNSCC cell lines are EGFR positive and are sensitive to EGFR inhibitors. All cell lines were authenticated by the ATCC for viability (before freezing and after thawing), growth, morphology and isoenzymology. Cells were stored according to the supplier's instructions and used over a course of no more than 3 months after resuscitation of frozen aliquots. Cultures were maintained in 5% CO2 and air humidified in a 37° C. incubator.
(§2) Erlotinib (ERL; Tarceva) and anakinra (ANA; Kineret) were obtained from the inpatient pharmacy at the University of Iowa Hospitals and Clinics. Drugs were added to cells at final concentrations of 5 μM ERL and 10 ng/mL or 50 ng/mL ANA. Human IgG and […] (DMSO) were used as controls and were obtained from Sigma Aldrich. Human IL-1α, IL-1β, and IL-18Rα neutralizing antibodies were obtained from R&D Systems and were used at a concentration of 0.5 μg/mL. Recombinant human IL-1α was obtained from Life Technologies and administered at a concentration of 1 ng/mL. Ac-Y-VAD-cho, a caspase-1 inhibitor (CalBioChem), was suspended in DMSO and added at a concentration of […], a pan-caspase inhibitor (Promega) was diluted in DMSO and added at a concentration of 20 μM. TLR agonists were used at the following concentrations: Pam3CSK4 (200ng/mL), FSL-1 (100 ng/mL), Poly I:C (20 μg/mL), LPS (200 ng/mL), Flagellin (200 ng/mL), Gardiquimod (1 μg/mL), CL075 (1 μg/mL), and E. coli DNA (1 μg/mL). All TLR agonists were obtained from InvivoGen. The required volume of each drug was added directly to complete cell culture media on cells to achieve the indicated final concentrations.
(§3) Levels of IL-6, IL-1α and IL-1β of treated cells were determined by ELISA. The culture media of the treated cells were harvested and each cytokine was detected according to the manufacturer's protocol using the Human Quantikine ELISA Kits (R&D Systems, Minneapolis, Minn.).
as §1, with “(20)” for “(16)”
(§4) Erlotinib (ERL; Tarceva), anakinra (ANA; Kineret) and N-acetyl cysteine (NAC; Acetadote) were obtained from the inpatient pharmacy at the University of Iowa Hospitals and Clinics. Drugs were added to cells at final concentrations of 5 μM ERL, 10 ng/mL or 50 ng/mL ANA and 20 mM NAC. Human IgG and […] (DMSO) were used as controls and were obtained from Sigma Aldrich. Pegylated catalase (CAT; Sigma Aldrich) was used at a final concentration of 100 U/mL. Human IL-1α, IL-1β, and IL-18Ra neutralizing antibodies were obtained from R&D Systems and were used at a concentration of 0.5 μg/mL. Recombinant human IL-1α was obtained from Life Technologies and administered at a concentration of 1 ng/mL. Ac-Y-VAD-cho (CalBioChem) was suspended in DMSO and used at 5 μM. Z-VAD-fmk (Promega) was diluted in DMSO and used at 20 μM. TLR agonists were used at the following concentrations: Pam3CSK4 (200 ng/mL), FSL-1 (100 ng/mL), Poly I:C (20 μg/mL), LPS (200 ng/mL), Flagellin (200 ng/mL), Gardiquimod (1 μg/mL), CL075 (1 μg/mL), and E. coli DNA (1 μg/mL). All TLR agonists were obtained from InvivoGen. […]

[2] = test system: Cal-27 HNSCC cells; test: IL-6 secretion by ELISA in Cal-27 cells; assay type: cell-based, human; settings: erlotinib 5 μM, 48 h vs DMSO, ELISA
Excerpt: as §1, §2, §3
as §1, with “(20)” for “(16)”
as §4

[3] = test system: SQ20B HNSCC cells; test: IL-1α release by ELISA in SQ20B cells; assay type: cell-based, human; settings: erlotinib 5 μM, indicated time points, ELISA
Protocol: as §2, §3
(§5) Erlotinib (ERL; Tarceva), anakinra (ANA; Kineret) and N-acetyl cysteine (NAC; Acetadote) were obtained from the inpatient pharmacy at the University of Iowa Hospitals and Clinics. Drugs were added to cells at final concentrations of 5 μM ERL, 10 ng/mL or 50 ng/mL ANA and 20 mM NAC. Human IgG and […] (DMSO) were used as controls and were obtained from Sigma Aldrich. Pegylated catalase (CAT; Sigma Aldrich) was used at a final concentration of 100 U/mL. Human IL-1α, IL-1β, and IL-18Ra neutralizing antibodies were obtained from R&D Systems and were used at a concentration of 0.5 μg/mL. Recombinant human IL-1α was obtained from Life Technologies and administered at a concentration of 1 ng/mL. Ac-Y-VAD-cho (CalBioChem) was suspended in DMSO and used at 5 μM. Z-VAD-fmk (Promega) was diluted in DMSO and used at 20 μM. TLR agonists were used at the following concentrations: Pam3CSK4 (200 ng/mL), FSL-1 (100 ng/mL), Poly I:C (20 μg/mL), LPS (200 ng/mL), Flagellin (200 ng/mL), Gardiquimod (1 μg/mL), CL075 (1 μg/mL), and E. coli DNA (1 μg/mL). All TLR agonists were obtained from InvivoGen. The required volume of each drug was added directly to complete cell culture media on cells to achieve the indicated final concentrations.
(§6) Levels of IL-6, IL-1α and IL-1β of treated cells were determined by ELISA. The culture media of the treated cells were harvested and each cytokine was detected according to the manufacturer's protocol using Human Quantikine ELISA Kits (R&D Systems, Minneapolis, Minn.).

[4] = test system: Cal-27 HNSCC cells; test: IL-1α release by ELISA in Cal-27 cells; assay type: cell-based, human; settings: erlotinib 5 μM, indicated time points, ELISA
Protocol: as §2, §3, §5, §6

[5] = test system: SQ20B and Cal-27 HNSCC cells; test: IL-1β secretion by ELISA after erlotinib; assay type: cell-based, human; settings: erlotinib 5 μM, any time point
Protocol: as §2, with “TLR agonists were used at the following concentrations: Pam3CSK4 (200ng/mL), FSL-1 (100 ng/mL), Poly I:C (20 μg/mL), LPS (200 ng/mL), Flagellin (200 ng/mL), Gardiquimod (1 μg/mL), CL075 (1 μg/mL), and E. coli DNA (1 μg/mL). All TLR agonists were obtained from InvivoGen. The required volume of each drug was added directly to complete cell culture media on cells to achieve the indicated final concentrations.” left out
Levels of IL-6, IL-1α and IL-1β of treated cells were determined by ELISA. The culture media of the treated cells were harvested and each cytokine was detected according to the manufacturer's protocol using the Human Quantikine ELISA Kits (R&D Systems, Minneapolis, Minn.). […]
as §6

[6] = test system: SQ20B xenograft tumors; test: HNSCC xenograft tumor growth in nude mice; assay type: in vivo, athymic nu/nu mice
Excerpt: Male and female athymic-nu/nu mice (4-5 weeks old) were purchased from Harlan Laboratories (Indianapolis, Ind.). Mice were housed in a pathogen-free barrier room in the Animal Care Facility at the University of Iowa and handled using aseptic procedures. All procedures were approved by the IACUC committee of the University of Iowa and conformed to the guidelines established by the NIH. Mice were allowed at least 3 days to acclimate prior to beginning experimentation, and food and water were made freely available. Tumor cells were inoculated into nude mice by subcutaneous injection of 0.1 mL aliquots of saline containing 2×10^6 SQ20B cells into the right flank using 26-gauge needles.
Mice started drug treatment 1 week after tumor inoculation. For the MyD88 knockdown experiments, female mice were randomized into 2 treatment groups and orally administered either water or 12.5 mg/kg erlotinib (ERL) daily. For the IL-1α neutralization experiments, male and female mice were randomized into 4 treatment groups as follows. Control group: Mice were administered water orally daily and 1 mg/kg IgG i.p once per week. […] Mice were evaluated daily and tumor measurements taken three times per week using Vernier calipers. Tumor volumes were calculated using the formula: tumor volume=(length×width^2)/2 where the length was the longest dimension, and width was the dimension perpendicular to length. […]

[7] = test system: SQ20B cells; test: TLR gene expression by RTPCR in SQ20B cells; assay type: cell-based, human
Protocol: (§7) Total RNA was extracted from cells after indicated time points using RNeasy.Plus mini kit (Qiagen). Conversion of RNA into cDNA was accomplished with the iScript cDNA synthesis kit (Bio-Rad) and a thermocycler with the following conditions: 5 minutes at 25° C., 30 minutes at 42° C., and 5 minutes at 85° C. Subsequent RTPCR analysis was performed in a 96-well optical plate with each well containing 6 μL of cDNA, 7.5 μL of SyBr Green Universal SuperMix (Bio-Rad), and 1.5 μof oligonucleotide primers (sense and antisense; 4 μM) for a total reaction volume of 15 μL. Oligonucleotide primers for human genes were obtained from IDT (Iowa City, Iowa). RTPCR was performed on ABI PRISM Sequence Detection System (model 7000, Applied Biosystems) with the following protocol: 95° C. for 15 seconds (denaturing) and 60° C. for 60 seconds (annealing), repeated for 40 cycles. Threshold cycle (CT) values for analyzed genes (in duplicate) were normalized as compared to GAPDH (cell lines) or 18S (human samples) CT values. Relative abundance was calculated as 0.5̂(ΔCT), with OCT being the CT value of the analyzed gene minus the CT value of the reference gene (GAPDH or 18S).

[8] = test system: Cal-27 cells; test: TLR gene expression by RTPCR in Cal-27 cells; assay type: cell-based, human
Protocol: as §7

[9] = test system: HNSCC tumor cell lines; settings: previous studies (ref. 10), cited from earlier work
[10] = test system: genes related to inflammation and innate immunity; settings: one other study (ref. 25); cited from earlier work
[11] = ERL 5 μM 48 h, absolute levels very low

Structure (SMILES) | IL-6 production/secretion with erlotinib [1] | IL-6 production/secretion with erlotinib [2] | IL-1α after erlotinib treatment over time [3] | IL-1α after erlotinib treatment over time ([3]; listed as ERL) | IL-1α after erlotinib treatment over time [4] | IL-1α after erlotinib treatment over time ([4]; listed as ERL) | secreted IL-1β after erlotinib treatment [5] | secreted IL-1β after erlotinib treatment ([5]; listed as ERL) | anti-tumor activity in vivo with IL-1α blockade ([6]; EGFRI combined with IL-1α blockade (neutralizing IL-1α antibody)) | tumor growth of MyD88-deficient xenografts treated with erlotinib ([6]; shMyD88 #2 and #9 vs erlotinib-treated control xenografts, 12.5 mg/kg orally daily, three weeks) | TLR8 expression [7, 11] | TLR mRNA expression ([7]; erlotinib) | TLR10 expression [8, 11] | TLR mRNA expression ([8]; erlotinib) | IL-6 expression/secretion in HNSCC cell lines treated with EGFRIs [9] | IL-6 expression/secretion in HNSCC cell lines treated with EGFRIs ([9]; listed as ERL) | genes related to inflammation and innate immunity [10]
C#Cc1cccc(Nc2ncnc3cc(OCCOC)c(OCCOC)cc23)c1 [erlotinib, Erlotinib] | increases IL-6 production | increases IL-6 production | steadily increased across all time points | increased across all time points | steadily increased across all time points | increased across all time points | undetectable; also recorded: unable to detect | not IL-1β was detectable | significantly increased | reduced tumor growth | increased | did not affect | increased | did not affect | significant upregulation | induces the secretion of IL-6 | –
COc1cc2ncnc(Nc3cccc(Br)c3)c2cc1OC [PD153035] | – | – | – | – | – | – | – | – | – | – | – | – | – | – | – | – | upregulated
